From patent US5326882A, “Chemiluminescent 3-(substituted Adamant-2'-Ylidene) 1,2-dioxetanes” (Tropix, Inc., priority 1992, dated 1994)

Tests used:
alkaline phosphatase [1] = biological target: T1, alkaline phosphatase (Bos taurus, UniProt P19111); assay: Detection limits for alkaline phosphatase, Berthold LB952T (Example XXII); type: biochemical; conditions: twice background
Description: The detection means for alkaline phosphatase with different chemiluminescent 1,2-dioxetane substrates were determined as follows: Duplicates of serial dilutions (1 to 3) of alkaline phosphates were incubated at room temperature with 0.4 mM dioxetane in 0.1 M diethanolamine, 1 mM MgCl2, pH 10.0, containing 1 mg/ml of either of the polymeric enhancers Enhancer 1 or Enhancer 2, in […].
Following either a 5 or a 20 minute incubation with a substrate, the chemiluminescence intensity was measured as a 5 second integrated Relative Light Units (RLU) and plotted as in FIG. 10. […] The alkaline phosphatase concentrations at twice background were used as the detection limits in Table 5.

[2] = biological target: T2, biotinylated pBR322-35mer detected with Avidix-AP (Bos taurus, UniProt P19111); assay: Half-time to maximum chemiluminescence, biotinylated DNA on membranes (Example XXVIII); conditions: 12.5 pg DNA, […] dioxetane in 0.1 M DEA, pH 10.0
T2 construct: purchased Tropix, Inc
T2 sequence (P19111 20-506 limits assumed): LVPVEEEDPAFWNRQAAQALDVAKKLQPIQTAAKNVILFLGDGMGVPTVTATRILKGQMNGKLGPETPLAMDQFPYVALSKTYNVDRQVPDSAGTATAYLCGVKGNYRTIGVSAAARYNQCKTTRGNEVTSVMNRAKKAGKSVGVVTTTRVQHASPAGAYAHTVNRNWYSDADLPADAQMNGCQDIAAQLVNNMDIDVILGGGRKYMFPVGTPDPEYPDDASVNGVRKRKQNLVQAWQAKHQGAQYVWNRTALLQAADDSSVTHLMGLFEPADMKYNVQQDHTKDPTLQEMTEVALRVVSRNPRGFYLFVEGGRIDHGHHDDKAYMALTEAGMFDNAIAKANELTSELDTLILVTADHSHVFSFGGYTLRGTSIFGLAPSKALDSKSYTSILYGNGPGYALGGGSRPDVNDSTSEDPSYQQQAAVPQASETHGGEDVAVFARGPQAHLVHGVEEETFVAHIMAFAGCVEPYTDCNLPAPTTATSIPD
Description: The performance of AMPPD and Cl-AMPPD on a nylon membrane was compared as follows: 12.5 picograms of biotinylated-pBR322-(35 mer) in 1 μL was spotted onto dry nylon membrane and crosslinked to the membrane with UV light. The membrane subsequently wetted with 1×SSC buffer, incubated with 0.2% casein, 0.1% Tween-20 in phosphate buffered saline (PBS) for 1 hour at room temperature, washed 4 times with 0.3% Tween-20 in PBS, washed twice in Substrate Buffer (0.1 M diethanolamine, 1 mM MgCl2, pH 10.0), and incubated for 5 minutes in 0.25 mM dioxetane in Substrate Buffer. In this fashion, two membranes: one incubated with AMPPD and the second with Cl-AMPPD, were generated. The membranes were then sealed in plastic, attached to the outside of a 12×75 mm glass test tube, and inserted into Turner Model 20-E luminometer equipped with a side-mounted photomultiplier detector and thermally equilibrated to 30° C. The chemiluminescence intensity was then monitored for 20-24 hours.
The half-times to the maximum chemiluminescence intensity obtained with AMPPD and Cl-AMPPD on PVDF and nylon membranes were calculated from data collected as described in Example XXVII, for the nylon membrane. For PVDF membrane, the revised protocol included the second Substrate Buffer wash followed by the membrane incubation for 5 minutes at room temperature in the Tropix NitroBlock™ reagent and a subsequent wash with Substrate Buffer prior to the dioxetane substrates addition. The half-times to the maximum chemiluminescent signal were calculated from the a plot of the logarithm (maximum chnemiluminescent signal minus signal at each time point) as a function of time and is shown in Table 9.
12.5 pg of biotinylated pBR322-35mer was detected with Avidix-AP and 0.24 mM dioxetane in 0.1 M DEA, pH 10.0.

alkaline phosphatase [3] = biological target: T1, alkaline phosphatase; assay: Chemiluminescent signal-to-noise levels with enhancers (Example XXIV); type: biochemical
Description: The chemiluminescent signal to noise levels were obtained with 2.83×10^-13 M alkaline phosphatase and various R-substituted adamantyl 1,2-dioxetane phosphates in the presence of several enhancers. All measurements were performed in a Berthold LB952T luminometer at room temperature. First, the background chemiluminescence levels (signal in the absence of the enzyme) of each sample (in triplicate) were measured. Each sample consisted of 0.2 μmoles of dioxetane in 0.45 ml of 0.1 M diethanolamine, 1 mM MgCl2, pH 10.0, without or with 1 mg/ml of the indicated enhancer. Tubes were inserted into the luminometer and the luminescence intensity was measured. Next, the tubes were removed from the luminometer and alkaline phosphatase (50 μl containing 1.415×10^-16 moles) was added to each tube, and the luminescence intensity was measured at 5 and 20 minutes after substrate addition. The final concentration of dioxetane in each tube was 0.4 mM.
All enhancers used at 1 mg/ml in 0.1 M DEA, pH 10. Alkaline phosphatase concentration=2.83×10^-13 M. Measurements performed in a Berthold LB952T Luminometer.

[4] = biological target: T3, alkaline phosphatase-labeled DNA probe (Bos taurus, UniProt P19111); assay: Alkaline phosphatase-labeled DNA probe detection in membrane with and without BDMQ blocking step (Example XV); conditions: for Detection limit (in picograms DNA) 5. min. exp.: five minute exposure 40 minutes after dioxetane addition; for Detection limit (in picograms DNA) 1 min. exp.: one minute exposure 77 minutes after dioxetane addition
T3 construct: purchased Tropix, Inc
T3 sequence (P19111 20-506 limits assumed): as above
T3 sequence (P02701 25-152 partner): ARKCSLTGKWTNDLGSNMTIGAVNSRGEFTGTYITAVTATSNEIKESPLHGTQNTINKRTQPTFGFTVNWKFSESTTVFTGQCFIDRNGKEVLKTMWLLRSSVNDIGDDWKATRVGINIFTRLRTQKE
Description: pBr 322 plasmid (4700 bp) was subjected to a nick translation process using a Trans-Light kit (Tropix, Inc., Bedford, Mass.) to generate a mixture of biotinylated single stranded polynucleotides of 200-2000 bps in length.
This mixture was dotted onto a dry BIODYNE A membrane as five parallel columns of dots of the following concentrations:
The membrane was subjected to ultraviolet irradiation (UVP Mineral Light; UVP, San Gabriel, Calif.) for 3 minutes to fix the DNA to the surface of the membrane, then air dried. Next, the membrane was blocked in 0.2% casein/0.1% Tween 20 detergent in PBS for 1 hour, following which 1/5000 diluted avidin-alkaline phosphatase conjugate (Tropix, Inc.) in 0.2% casein in PBS was added. The membrane was then incubated for 30 minutes, washed three times (for 5 minutes each time) in 0.2% casein/0.1% Tween 20 detergent in PBS and washed once for five minutes in aqueous 0.1M diethanolamine containing 1 mm magnesium chloride and 0.02% sodium azide, pH 10.0 (substrate buffer).
Next, the five columns of rows of dots 1-5 were individually cut from the membrane ("strips 1-5"), as were the five columns of rows of dots 6-10 ("strips 6-10"). Strips 1-5 were washed with substrate buffer for 30 minutes. Strips 6-10 were blocked in 0.1% BDMQ in substrate buffer for 30 minutes. Both sets of strips were then incubated for 5 minutes in substrate buffer, then individually incubated for five minutes in aqueous solutions (0.25 mM) of 1,2-dioxetanes as indicated below:
All strips were then placed in camera luminometers and exposed on Polaroid Type 612 instant black and white film.

[5] = PVDF membrane treated with NitroBlock
[6] = enhancer NONE, 5 min, alkaline phosphatase 2.83×10^-13 M
[7] = BDMQ blocking step, listed as OH-Adamant-2'-ylidene (B isomer)
[8] = BDMQ blocking step, listed as OH-Adamant-2'-ylidene (A isomer)

T1 sequence (P19111 20-506 limits assumed): as the sequence (P19111 20-506 limits assumed) above

Row | Structure (SMILES) | Detection limit for alkaline phosphatase (alkaline phosphatase [1]; ENHANCER 1, 5 MIN) [femtomoles/liter] | Detection limit for alkaline phosphatase (alkaline phosphatase [1]; ENHANCER 1, 20 MIN) [femtomoles/liter] | Detection limit for alkaline phosphatase (alkaline phosphatase [1]; ENHANCER 2, 5 MIN) [femtomoles/liter] | Detection limit for alkaline phosphatase (alkaline phosphatase [1]; ENHANCER 2, 20 MIN) [femtomoles/liter] | HALF-TIME TO MAXIMUM CHEMILUMINESCENCE ([2]; Nylon membrane) [min] | HALF-TIME TO MAXIMUM CHEMILUMINESCENCE [2, 5] [min] | chemiluminescent signal-to-noise level (alkaline phosphatase [3]; EMERALD 1 1 mg/ml, 5 min) | chemiluminescent signal-to-noise level (alkaline phosphatase [3]; EMERALD 1 1 mg/ml, 20 min) | chemiluminescent signal-to-noise level (alkaline phosphatase [3]; EMERALD 2 1 mg/ml, 5 min) | chemiluminescent signal-to-noise level (alkaline phosphatase [3]; EMERALD 2 1 mg/ml, 20 min) | chemiluminescent signal-to-noise level (alkaline phosphatase [3]; SAPPHIRE 1 1 mg/ml, 5 min) | chemiluminescent signal-to-noise level (alkaline phosphatase [3]; SAPPHIRE 1 1 mg/ml, 20 min) | chemiluminescent signal-to-noise level (alkaline phosphatase [3]; SAPPHIRE 2 1 mg/ml, 5 min) | chemiluminescent signal-to-noise level (alkaline phosphatase [3]; SAPPHIRE 2 1 mg/ml, 20 min) | chemiluminescent signal-to-noise level (alkaline phosphatase [3]; [6]) | chemiluminescent signal-to-noise level (alkaline phosphatase [3]; enhancer NONE, 20 min) | Detection limit (in picograms DNA) 5. min. exp. ([4]; BDMQ blocking step) [picograms DNA] | Detection limit (in picograms DNA) 1 min. exp. ([4]; BDMQ blocking step) [picograms DNA] | Detection limit (in picograms DNA) 5. min. exp. ([4]; no BDMQ blocking step) [picograms DNA] | Detection limit (in picograms DNA) 1 min. exp. ([4]; no BDMQ blocking step) [picograms DNA] | other results
1 | COC1(c2cccc(OP(=O)(O)O)c2)OOC12C1CC3CC2CC(Cl)(C3)C1 (stereo not drawn) [Cl-AMPPD, disodium 3-(4-methoxyspiro-[1,2-dioxetane-3,2'-(5'-chloro)tricyclo[3.3.1.1^3,7]decan]-4-yl) phenyl phosphate] | 1.0 | 0.6 | 0.8 | 0.4 | 47.48 | 14.20 | 583 | 964 | 839 | 1280 | 577 | 827 | 1319 | 2221 | 82 | 98 | 0.313 | 0.313 | 1.250 | 1.250 | 
2 | COC1(c2cccc(OP(=O)(O)O)c2)OOC12C1CC3CC2CC(O)(C3)C1 (single isomer, unassigned) [B-OH-AMPPD, disodium 3-(4-methoxyspiro-[1,2-dioxetane-3,2'-(5'-hydroxy)tricyclo[3.3.1.1^3,7]decan]-4-yl)phenyl phosphate] |  |  |  |  |  |  |  |  |  |  |  |  |  |  |  |  |  |  | 5.000 |  | Detection limit (in picograms DNA) 5. min. exp. [4, 7]: 1.250 picograms DNA; Detection limit (in picograms DNA) 1 min. exp. [4, 7]: 5.000 picograms DNA; Detection limit (in picograms DNA) 1 min. exp. ([4]; no BDMQ blocking step, listed as OH-Adamant-2'-ylidene (B isomer)): 20.000 picograms DNA
3 | COC1(c2cccc(OP(=O)(O)O)c2)OOC12C1CC3CC2CC(O)(C3)C1 (single isomer, unassigned) [A-OH-AMPPD, disodium 3-(4-methoxyspiro-[1,2-dioxetane-3,2'-(5'-hydroxy)tricyclo[3.3.1.1^3,7]decan]-4-yl)phenyl phosphate] |  |  |  |  |  |  |  |  |  |  |  |  |  |  |  |  |  |  | 5.000 |  | Detection limit (in picograms DNA) 5. min. exp. [4, 8]: 0.625 picograms DNA; Detection limit (in picograms DNA) 1 min. exp. [4, 8]: 2.500 picograms DNA; Detection limit (in picograms DNA) 1 min. exp. ([4]; no BDMQ blocking step, listed as OH-Adamant-2'-ylidene (A isomer)): 10.000 picograms DNA
4 | COC1(c2cccc(OP(=O)(O)O)c2)OOC12C1CC3CC(C1)CC2C3 (stereo not drawn) [AMPPD, 3-(4-methoxyspiro[1,2-dioxetane-3,2'-triyclo[3.3.1.1^3,7]decan]-4-yl)phenyl phosphate, reference compound] | 4.0 | 1.4 | 3.5 | 1.1 | 99.83 | 49.51 | 109 | 282 | 113 | 291 | 159 | 364 | 192 | 434 | 21 | 34 | 0.625 | 1.250 | 2.500 | 5.000 | 
